From patent publication US20260028344A1, “CRYSTALLINE FORMS OF LANRAPLENIB AND METHODS OF MAKING AND USING THE SAME” (Kronos Bio, Inc., priority 2022, published 2026)

Experiment: Solubility / biopharmaceutical classification (BCS) of lanraplenib
Assay type: physicochemical
Details: in physiological conditions

Nc1cncc(-c2cn3ccnc3c(Nc3ccc(N4CCN(C5COC5)CC4)cc3)n2)n1 [Lanraplenib]
solubility: low
